Results as given in patent US11040949B2, “Compounds affecting pigment production and methods for treatment of bacterial diseases” (Versitech Limited, priority 2017, dated 2021).
Read-outs that look alike come from different tables or passages of the source.

Experiments:
[1] = Solubility in simulated gastric and intestinal fluids; format: physicochemical
Text: The following table (Table 4) illustrates the solubility of two different compounds, NP16-XL-016 (hereinafter as “IM032”) and NP16-XL-061 (hereinafter as “IM032-C”), in two solutions with different pH values simulating the pH of gastric juice and human intestinal fluid using HCl and phosphate buffer respectively.

[2] = system: S. aureus USA300; assay: In vitro staphyloxanthin production inhibition by NP-16 analogues; format: cell-based, Staphylococcus aureus; details: S. aureus USA300, methanol extract OD 450 nm, 300 nM to 700 nM
Procedure: Evaluation of NP-16 analogues in Staphyloxanthin production
The in vitro pigment inhibition studies were performed by S. aureus USA300 cultured in BHI with or without the presence of inhibitor compounds at 37° C. and 250 rpm for 36-48 hours. The bacteria were washed twice with PBS prior to the staphyloxanthin purification with methanol. The OD of the extracts were monitor at 450 nm using DTX880 multi-plate reader spectrophotometer (Beckman). The concentration range tested for the compounds were between 300 nM to 700 nM, and control groups were added with equal volume of DMSO.
The cytotoxicity of NP-16 and some of its analogues was tested against Raw 264.7 cells, and the cell tolerance of each compounds were documented in Table 3. Along with the in vitro staphyloxanthin production of the NP-16 analogues were being tested, the compounds can exert staphyloxanthin production inhibition. The staphyloxanthin from the overnight-cultured bacteria were extracted with methanol and quantified in via spectrophotometry. The results were presented in relative ratio to NP-16 in both the inhibition ratio as well as the TC50 (concentration for decreasing cell viability by 50%) in Table 3 (sample names correspond to those listed in Table 1).

[3] = system: S. aureus COL; assay: IM032 staphyloxanthin production inhibition; format: cell-based; details: Staphylococcus aureus, MRSA
Procedure: (§1) This study aimed to evaluate IM032 for its in vitro efficacy to inhibit the production of staphyloxanthin in different strains of S. aureus.
(§2) The negative control was dimethyl sulfoxide (DMSO) which was used to prepare stock solutions and dilutions; positive control in this test was S. aureus strain FPR3757 treated with IM032.
(§3) The test item was dissolved at 44.9 mg/mL in DMSO at 37° C., aliquoted into several tubes, and stored at −20° C. until use. On the day of testing, a stock solution was serially diluted to testing concentrations with DMSO. All solutions were vortexed and mixed with a pipette to achieve homogeneity immediately before dilution. A correction factor for purity was not applied to the test item preparations.
(§4) Each test item solution (6 μL) was combined with 0.6 mL of S. aureus culture in brain heart infusion broth (CFU per well=1×10^7). 12-wells repeats were performed for each concentration in 96-well 2-mL plates. The plates were then incubated in a shaker at 37° C., 250 rpm for 24 hours. The bacteria were centrifuged at 4,000 rpm for 10 min. Next, the bacteria from 4-wells were combined and were washed twice with PBS. Staphyloxanthin was extracted with 300 μL of methanol in a water bath at 60° C. for 1 hour. After centrifugation, 100 μL of supernatant was transferred to a 96-well cell culture plate and OD450 was measured. The relative pigment production at each tested concentration was calculated as follows: […]
(§5) The IC50 for each test was determined based on the calculated inhibition ratio from above with Prism 6.0 by employing a non-linear regression (four parameters) fitting method with assigned bottom and top at 0.05 and 0.95 respectively. The IC50 presented is the best-fit value.
(§6) S. aureus strains (ATCC29213, HG003, Mu3, SH1000, and COL) were treated with IM032 at final concentrations of 4,000, 1,000, 250, 63, 16, 4 and 1 nM (FIG. 7A). S. aureus strains (JE2, USA300-3, LAC, ST239III and Newman) were treated with IM032 at final concentrations of 250, 63, 16, 4, 1, 0.2 and 0.06 nM (FIG. 7B). […] The determined IC50 values of the tested strains range from 1.2 to 70 nM (Tables 6 and 7).

[4] = system: S. aureus HG003; assay: IM032 staphyloxanthin production inhibition; format: cell-based; details: Staphylococcus aureus, MSSA
Procedure: as §1, §2, §3, §4, §5, §6

[5] = system: S. aureus Mu3; assay: IM032 staphyloxanthin production inhibition; format: cell-based; details: Staphylococcus aureus
Procedure: as §1, §2, §3, §4, §5, §6

[6] = system: S. aureus USA300-3; assay: IM032 staphyloxanthin production inhibition; format: cell-based; details: Staphylococcus aureus
Procedure: as §1, §2, §3, §4, §5, §6

[7] = system: S. aureus LAC; assay: IM032 staphyloxanthin production inhibition; format: cell-based; details: Staphylococcus aureus
Procedure: as §1, §2, §3, §4, §5, §6

[8] = system: S. aureus ST239III; assay: IM032 staphyloxanthin production inhibition; format: cell-based; details: Staphylococcus aureus, MRSA
Procedure: as §1, §2, §3, §4, §5, §6

[9] = system: S. aureus Newman; assay: IM032 staphyloxanthin production inhibition; format: cell-based; details: Staphylococcus aureus, MSSA / NEWMAN
Procedure: as §1, §2, §3, §4, §5, §6

[10] = system: S. aureus SH1000; assay: IM032 staphyloxanthin production inhibition; format: cell-based; details: Staphylococcus aureus, MSSA
Procedure: as §1, §2, §3, §4, §5, §6

[11] = system: S. aureus ATCC29213; assay: IM032 staphyloxanthin production inhibition; format: cell-based; details: Staphylococcus aureus, ATCC 29213 / MSSA
Procedure: as §1, §2, §3, §4, §5, §6

[12] = system: S. aureus FPR3757; assay: IM032 staphyloxanthin production inhibition; format: cell-based; details: Staphylococcus aureus
Procedure: as §1, §2, §3, §4, §5, §6

[13] = system: S. aureus JE2; assay: IM032 staphyloxanthin production inhibition; format: cell-based; details: Staphylococcus aureus
Procedure: as §1, §2, §3, §4, §5, §6

O=C(/C=C/c1ccccc1Br)Nc1ccc(S(=O)(=O)N2CCCCC2)cc1 [NP16-XL-016, 3-(6-bromophenyl)-N-[4-(1-piperidine-1-sulfonyl)phenyl]-acrylamide]
solubility ([1]; 0.1N HCl + 0.1% Tween 80 (simulated gastric fluid), pH 2, aqueous with cosolvent or surfactant or cyclodextrin, read-out: Solubility in pH 2 (0.1N HCl + 0.1% Tween 80)-simulating human stomach): 2.03 µg/mL | solubility ([1]; pH 7.4, aqueous with cosolvent or surfactant or cyclodextrin, read-out: Solubility in pH 7.4 (KH2PO4 + 0.1% Tween 80)-simulating human intestine): 1.74 µg/mL | solubility higher than that of IM032-Cl ([1]; two biorelevant media, pH 2 and pH 7.4): > 20 × | Relative ratio to NP16 based on inhibition ratio [2]: 2.71 | IC50 ([3]; Table 6, MRSA (HA)): 1.2 nM | IC50 ([3]; Table 8, HA-MRSA): 0.9 ± 1 nM | IC50 ([4]; Table 6): 46 nM | IC50 ([4]; Table 8): 54.4 ± 4 nM | IC50 ([5]; MU3): 1.8 nM | IC50 ([5]; VISA): 2.6 ± 1 nM | IC50 ([6]; MRSA / USA300, Table 7, USA300-3, MRSA (HA)): 27 nM | IC50 ([6]; MRSA / USA300, Table 8, USA300-3, HA-MRSA): 42.8 ± 6 nM | IC50 ([7]; MRSA): 27 nM | IC50 ([7]; MRSA / USA300): 43.6 ± 5 nM | IC50 ([8]; Table 7, ST239III, MRSA (HA)): 19 nM | IC50 ([8]; Table 8, Clinical isolate ST239III, HA-MRSA): 16.3 ± 8 nM | IC50 ([9]; Table 7): 21 nM | IC50 ([9]; Table 8): 23.7 ± 1 nM | IC50 ([10]; Table 6): 70 nM | IC50 ([10]; Table 8): 70.5 ± 6 nM | IC50 ([11]; Table 6): 18 nM | IC50 ([11]; Table 8): 30 ± 5 nM | IC50 ([12]; FPR3757, FPR3757, previous study): 17 nM | IC50 ([12]; MRSA / USA300, Table 8, USA300 (FPR-3757), CA-MRSA): 30.8 ± 5 nM | IC50 ([12]; MRSA, Table 6, first experiment, FPR3757, MRSA (CA), positive control): 20 nM | IC50 ([12]; MRSA, Table 7, second experiment, FPR3757, MRSA (CA), positive control): 28 nM | IC50 ([13]; / USA300): 37.7 ± 4 nM | IC50 ([13]; MRSA): 26 nM
